According to patent publication US11702429B2, “mTORC modulators and uses thereof” (Aeovian Pharmaceuticals, Inc., priority 2019, dated 2023):
Read-outs that look alike come from different tables or passages of the source.

Experiments:
mTORC1 = molecular target: T1, mTORC1 (Homo sapiens, UniProt P42345+P62942); test: Inhibition assay for mTORC1: phosphorylation of pS6K at Thr389, AlphaLISA in PC3 cells; assay type: cell-based; conditions: for IC50: read-out: pIC50 mTORC1 (converted)
T1 construct: endogenous in cells; host or cells: PC3 cells (human prostate adenocarcinoma)

mTORC2 = molecular target: T2, mTORC2 (Homo sapiens, UniProt P42345+P62942); test: Inhibition assay for mTORC2: phosphorylation of pAkt at Ser473, AlphaLISA in PC3 cells; assay type: cell-based; conditions: for IC50: read-out: pIC50 mTORC2 (converted)
T2 construct: endogenous in cells; host or cells: PC3 cells (human prostate adenocarcinoma)

[1] = PC3 cells, treated 24 hours, pS6K Thr389, AlphaLISA, C16 diastereomer mixtures not separated
[2] = PC3 cells, treated 24 hours, pAkt Ser473, AlphaLISA, C16 diastereomer mixtures not separated

T2 sequence (P62942 2-108 limits assumed, other chains not shown): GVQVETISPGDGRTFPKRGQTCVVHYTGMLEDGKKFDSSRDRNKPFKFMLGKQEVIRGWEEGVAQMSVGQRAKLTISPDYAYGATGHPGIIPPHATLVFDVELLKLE

Row | SMILES | IC50 (mTORC1) [nM] | IC50 (mTORC2) [nM] | other results
1 | CO[C@@H]1C[C@H](C[C@@H](C)[C@@H]2CC(=O)[C@H](C)/C=C(\C)[C@@H](O)[C@@H](OC)C(=O)[C@H](C)C[C@H](C)/C=C/C=C/C=C(\C)C(OCCO)C[C@@H]3CC[C@@H](C)[C@@](O)(O3)C(=O)C(=O)N3CCCCC3C(=O)O2)CC[C@H]1OC(=O)NCCO (stereo partly shown) [Compound 64] | – | – | pIC50 mTORC1 (mTORC1; [1]): B (8.5 to 9.5 as B); pIC50 mTORC2 (mTORC2; [2]): A (PIC50 for mTORC2 of <5 as A)
2 | COC1C[C@@H]2CC[C@@H](C)[C@@](O)(O2)C(=O)C(=O)N2CCCCC2C(=O)O[C@H]([C@H](C)C[C@@H]2CC[C@@H](OC(=O)NCCC3CC3)[C@H](OC)C2)CC(=O)[C@H](C)/C=C(\C)[C@@H](O)[C@@H](OC)C(=O)[C@H](C)C[C@H](C)/C=C/C=C/C=C/1C (stereo partly shown) [Compound 337] | < 0.316 | < 1000 | –
3 | COC1C[C@@H]2CC[C@@H](C)[C@@](O)(O2)C(=O)C(=O)N2CCCCC2C(=O)O[C@H]([C@H](C)C[C@@H]2CC[C@@H](OC(=O)NC3C(O)O[C@H](CO)[C@@H](O)[C@@H]3O)[C@H](OC)C2)CC(=O)[C@H](C)/C=C(\C)[C@@H](O)[C@@H](OC)C(=O)[C@H](C)C[C@H](C)/C=C/C=C/C=C/1C (stereo partly shown) [Compound 361] | > 3.16 | < 1000 | –
4 | COC1C[C@@H]2CC[C@@H](C)[C@@](O)(O2)C(=O)C(=O)N2CCCCC2C(=O)O[C@H]([C@H](C)C[C@@H]2CC[C@@H](OC(=O)N(C)CCN3CCCCC3)[C@H](OC)C2)CC(=O)[C@H](C)/C=C(\C)[C@@H](O)[C@@H](OC)C(=O)[C@H](C)C[C@H](C)/C=C/C=C/C=C/1C (stereo partly shown) [Compound 318] | < 0.316 | < 1000 | –
5 | COC1C[C@@H]2CC[C@@H](C)[C@@](O)(O2)C(=O)C(=O)N2CCCCC2C(=O)O[C@H]([C@H](C)C[C@@H]2CC[C@@H](OC(=O)N(C)CCO)[C@H](OC)C2)CC(=O)[C@H](C)/C=C(\C)[C@@H](O)[C@@H](OC)C(=O)[C@H](C)C[C@H](C)/C=C/C=C/C=C/1C (stereo partly shown) [Compound 313] | < 0.316 | < 1000 | –
6 | CO[C@@H]1C[C@H](C[C@@H](C)[C@@H]2CC(=O)[C@H](C)/C=C(\C)[C@@H](O)[C@@H](OC)C(=O)[C@H](C)C[C@H](C)/C=C/C=C/C=C(\C)C(OC[C@@H](C)O)C[C@@H]3CC[C@@H](C)[C@@](O)(O3)C(=O)C(=O)N3CCCCC3C(=O)O2)CC[C@H]1O (stereo partly shown) [Compound 223] | 0.316 to 3.16 | > 10000 | –
7 | COCCCOC1CC2CCC(C)C(O)(O2)C(=O)C(=O)N2CCCCC2C(=O)OC(C(C)CC2CCC(OCCCO)C(OC)C2)CC(=O)C(C)C=C(C)C(O)C(OC)C(=O)C(C)CC(C)C=CC=CC=C1C (stereo not shown) [Compound 33] | – | – | pIC50 mTORC1 (mTORC1; [1]): A (pIC50 for mTORC1 of >9.5 as A); pIC50 mTORC2 (mTORC2; [2]): B (5 to 6 as B)
8 | CO[C@@H]1C[C@H](C[C@@H](C)[C@@H]2CC(=O)[C@H](C)/C=C(\C)[C@@H](O)[C@@H](OC)C(=O)[C@H](C)C[C@H](C)/C=C/C=C/C=C(\C)C(OCCOCCO)C[C@@H]3CC[C@@H](C)[C@@](O)(O3)C(=O)C(=O)N3CCCCC3C(=O)O2)CC[C@H]1O (stereo partly shown) [Compound 224] | 0.316 to 3.16 | > 10000 | –
9 | CO[C@@H]1C[C@H](C[C@@H](C)[C@@H]2CC(=O)[C@H](C)/C=C(\C)[C@@H](O)[C@@H](OC)C(=O)[C@H](C)C[C@H](C)/C=C/C=C/C=C(\C)C(OCCO)C[C@@H]3CC[C@@H](C)[C@@](O)(O3)C(=O)C(=O)N3CCCC[C@H]3C(=O)O2)CC[C@H]1OCCCN1CCN(C)CC1 (mixture of isomers) [Compound 34] | – | – | IC50 (mTORC1; [1]): 0.316 to 3.16 nM; IC50 (mTORC2; [2]): > 10000 nM
10 | COC1C[C@@H]2CC[C@@H](C)[C@@](O)(O2)C(=O)C(=O)N2CCCCC2C(=O)O[C@H]([C@H](C)C[C@@H]2CC[C@@H](OCCCN3CCOCC3)[C@H](OC)C2)CC(=O)[C@H](C)/C=C(\C)[C@@H](O)[C@@H](OC)C(=O)[C@H](C)C[C@H](C)/C=C/C=C/C=C/1C (stereo partly shown) [Compound 322] | < 0.316 | < 1000 | –
11 | COC1C[C@@H]2CC[C@@H](C)[C@@](O)(O2)C(=O)C(=O)N2CCCCC2C(=O)O[C@H]([C@H](C)C[C@@H]2CC[C@@H](OC(=O)NCCN3CCOCC3)[C@H](OC)C2)CC(=O)[C@H](C)/C=C(\C)[C@@H](O)[C@@H](OC)C(=O)[C@H](C)C[C@H](C)/C=C/C=C/C=C/1C (stereo partly shown) [Compound 336] | < 0.316 | < 1000 | –
12 | CO[C@@H]1C[C@H](C[C@@H](C)[C@@H]2CC(=O)[C@H](C)/C=C(\C)[C@@H](O)[C@@H](OC)C(=O)[C@H](C)C[C@H](C)/C=C/C=C/C=C(\C)C(OC[C@H](O)c3ccccc3)C[C@@H]3CC[C@@H](C)[C@@](O)(O3)C(=O)C(=O)N3CCCCC3C(=O)O2)CC[C@H]1O (stereo partly shown) [Compound 214] | < 0.316 | 1000 to 10000 | –
13 | COC1CC(CC(C)C2CC(=O)C(C)C=C(C)C(O)C(OC)C(=O)C(C)CC(C)C=CC=CC=C(C)C(OCCO)CC3CCC(C)C(O)(O3)C(=O)C(=O)N3CCCCC3C(=O)O2)CCC1OCCCN1CCOCC1C (mixture of isomers) [Compound 2] | – | – | pIC50 mTORC1 (mTORC1; [1]): A (pIC50 for mTORC1 of >9.5 as A); pIC50 mTORC2 (mTORC2; [2]): A (PIC50 for mTORC2 of <5 as A)
14 | CO[C@@H]1C[C@H](C[C@@H](C)[C@@H]2CC(=O)[C@H](C)/C=C(\C)[C@@H](O)[C@@H](OC)C(=O)[C@H](C)C[C@H](C)/C=C/C=C/C=C(\C)C(OCc3ccccc3)C[C@@H]3CC[C@@H](C)[C@@](O)(O3)C(=O)C(=O)N3CCCCC3C(=O)O2)CC[C@H]1O (stereo partly shown) [Compound 205] | < 0.316 | < 1000 | –
15 | CO[C@@H]1C[C@H](C[C@@H](C)[C@@H]2CC(=O)[C@H](C)/C=C(\C)[C@@H](O)[C@@H](OC)C(=O)[C@H](C)C[C@H](C)/C=C/C=C/C=C(\C)C(OC3CC3)C[C@@H]3CC[C@@H](C)[C@@](O)(O3)C(=O)C(=O)N3CCCCC3C(=O)O2)CC[C@H]1O (stereo partly shown) [Compound 209] | < 0.316 | < 1000 | –
16 | CO[C@@H]1C[C@H](C[C@@H](C)[C@@H]2CC(=O)[C@H](C)/C=C(\C)[C@@H](O)[C@@H](OC)C(=O)[C@H](C)C[C@H](C)/C=C/C=C/C=C(\C)C(OC3COC3)C[C@@H]3CC[C@@H](C)[C@@](O)(O3)C(=O)C(=O)N3CCCCC3C(=O)O2)CC[C@H]1O (stereo partly shown) [Compound 218] | 0.316 to 3.16 | > 10000 | –
17 | COC1CC2CCC(C)C(O)(O2)C(=O)C(=O)N2CCCCC2C(=O)OC(C(C)CC2CCC(OC(=O)C3(C)COC(C)(C)OC3)C(OC)C2)CC(=O)C(C)C=C(C)C(O)C(OC)C(=O)C(C)CC(C)C=CC=CC=C1C (stereo not shown) [Compound 309] | < 0.316 | < 1000 | –
18 | COC1C[C@@H]2CC[C@@H](C)[C@@](O)(O2)C(=O)C(=O)N2CCCCC2C(=O)O[C@H]([C@H](C)C[C@@H]2CC[C@@H](OC(=O)NCCc3c[nH]cn3)[C@H](OC)C2)CC(=O)[C@H](C)/C=C(\C)[C@@H](O)[C@@H](OC)C(=O)[C@H](C)C[C@H](C)/C=C/C=C/C=C/1C (stereo partly shown) [Compound 364] | < 0.316 | < 1000 | –
19 | COC1C[C@@H]2CC[C@@H](C)[C@@](O)(O2)C(=O)C(=O)N2CCCCC2C(=O)O[C@H]([C@H](C)C[C@@H]2CC[C@@H](OP(C)(C)=O)[C@H](OC)C2)CC(=O)[C@H](C)/C=C(\C)[C@@H](O)[C@@H](OC)C(=O)[C@H](C)C[C@H](C)/C=C/C=C/C=C/1C (stereo partly shown) [Compound 342] | < 0.316 | < 1000 | –
20 | CO[C@@H]1C[C@H](C[C@@H](C)[C@@H]2CC(=O)[C@H](C)/C=C(\C)[C@@H](O)[C@@H](OC)C(=O)[C@H](C)C[C@H](C)/C=C/C=C/C=C(\C)C(SC(C)C)C[C@@H]3CC[C@@H](C)[C@@](O)(O3)C(=O)C(=O)N3CCCCC3C(=O)O2)CC[C@H]1O (stereo partly shown) [Compound 201] | > 3.16 | 1000 to 10000 | –
